Measurements from patent US9751919B2, “Antimicrobial compositions comprising a hyaluronic acid binding peptide and a β-lactam antibiotic” (priority 2012, dated 2017).
Where “and” joins values, the source holds several entries; their conditions need not be identical. Equal entries are not always repeated. Where two headings read alike, the source gives them in different places. Marks after values point to notes of the source that are not given here.

Assays:
MSSA = experiment: MIC (CLSI broth dilution), agent alone; assay type: cell-based, Staphylococcus aureus; details: agent alone
Outline: (§1)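 S. aureus isolates were tested by CLSI 2005 broth macrodilution in doubling dilutions of cation-adjusted Mueller-Hinton broth. Inoculum was about 5×10^5 CFU/ml, with 24 h incubation in ambient air. MIC was the lowest concentration inhibiting visible growth, with an MSSA and ATCC QC strains as controls.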

CA-MRSA = experiment: MIC (CLSI broth dilution), agent alone; assay type: cell-based, Staphylococcus aureus
Outline: as §1

HA-MRSA = experiment: MIC (CLSI broth dilution), agent alone; assay type: cell-based, Staphylococcus aureus
Outline: as §1

E. Faecium = experiment: Checkerboard assay (FIC index); assay type: cell-based, Enterococcus faecium; details: antibiotic combined with PEP35
Description: The checkerboard assays were carried out as described by Eliopoulos and Moellering (Chapter 9) in Antibiotic in Laboratory Medicine, Lorian Ed. 1996 as well as Bonapace et al. Diagnostic Microbiology and Infectious Diseases 2002; 44:363-366 and Bonapace et al. Diagnostic Microbiology and Infectious Diseases 2000; 38:43-50. In brief, checkerboard assays were performed in 96 well microtitre trays using an 8-by-8 well configuration. […] 96-well custom designed microtitre plates contained 100 ul/well of cation adjusted Mueller-Hinton broth (eg. for Enterobacteriaceae) with or without lysed horse blood (2-5% V/V) [eg. for S. pneumoniae] and were inoculated to achieve a final concentration of approximately 5×10^5 CFU/ml and incubated in ambient air for 24 hours prior to reading. Colony counts were performed periodically to confirm inocula. Quality control was performed every two weeks using a variety of ATCC QC organisms including; S. pneumoniae 49619, S. aureus 29213, E. faecalis 29212, E. coli 25922 and P. aeruginosa 27853. For all antimicrobials as well as PEP35, CLSI criteria was used.
The fractional inhibitory concentration index (FIC index) was used to interpret synergy, antagonism or additivity/indifference. FIC index=FIC of drug A+FIC of drug B where:
The FIC of drug A and drug B is calculated as follows, FIC drug A=MIC of drug A in combination/MIC of drug A alone and FIC of drug B=MIC of drug B in combination/MIC of drug B alone. Synergy is defined as FIC index ≦0.5, additivity/indifference FIC >0.5-4 and antagonism FIC index >4.
Antimicrobials used included PEP35, cefazolin, ceftriaxone, vancomycin, linezolid, tigecycline and daptomycin versus Gram-positive cocci and PEP35, gentamicin, levofloxacin, piperacillin/tazobactam, meropenem and colistin (Polymyxin E) versus Gram-negative bacilli. These agents were obtained as laboratory grade powders from their respective manufacturers. Stock solutions were prepared and dilutions made as described by the Clinical Laboratory Standards Institute (2005 CLSI).
Organisms included Gram-positive cocci (2 strains of each): Methicillin-susceptible Staphylococcus aureus (MSSA), community-associated (CA) and healthcare-associated (HA) methicillin-resistant Staphylococcus aureus (MRSA), vancomycin-intermediate Staphylococcus aureus (VISA), vancomycin-resistant Staphylococcus aureus (VRSA), methicillin-resistant Staphylococcus epidermidis (MRSE), Streptococcus pyogenes, Streptococcus agalactiae, Streptococcus pneumoniae, Enterococcus faecalis, Enterococcus faecium and vancomycin-resistant enterococcus (VRE). Gram-negative bacilli tested (2 strains of each) included: E. coli, Pseudomonas aeruginosa, Klebsiella pneumoniae, K. oxytoca, Enterobacter cloacae, P. mirabilis and Stenotrophomonas maltophilia. MIC testing, following two subcultures from frozen stock were determined by the CLSI 2005 approved broth microdilution method.

E. coli = experiment: Checkerboard assay (FIC index); assay type: cell-based, Escherichia coli; details: E. coli 69716
Outline: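 Checkerboard 8×8 broth microdilution in cation-adjusted Mueller-Hinton broth at ~5×10^5 CFU/ml, read after 24 h in ambient air, following CLSI criteria. The FIC index is the sum of each drug's MIC in combination divided by its MIC alone: synergy ≤0.5, indifference 0.5–4, antagonism >4.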

[1] = CA-MRSA 69615 (USA400)^a row, antibiotic alone, in µg/mL
[2] = CA-MRSA 69615 (USA400)^b row, antibiotic alone, in µg/mL
[3] = HA-MRSA 70798 (USA100/800), agent alone, in µg/mL
[4] = HA-MRSA 77090 (USA100/800), agent alone
[5] = HA-MRSA 77090 (USA100/800)^a row, antibiotic alone, in µg/mL
[6] = HA-MRSA 77090 (USA100/800)^b row, antibiotic alone, in µg/mL
[7] = HA-MRSA 77098 (USA100/800), agent alone
[8] = β-lactam combined with HybPEP35-1
[9] = β-lactam combined with Scrambled PEP35

Row | Compound | MIC (MSSA; MSSA 79333) | MIC (CA-MRSA; [1]) | MIC (CA-MRSA; [2]) | MIC (HA-MRSA; [3]) | MIC (HA-MRSA; [4]) | MIC (HA-MRSA; [5]) | MIC (HA-MRSA; [6]) | MIC (HA-MRSA; [7]) | Avg ΣFIC (range) (E. Faecium; E. Faecium 78024) | Avg ΣFIC (range) (E. Faecium; E. Faecium 78352) | Avg ΣFIC (range) (E. coli; antibiotic combined with PEP35) | Avg ΣFIC (range) (E. coli; [8]) | Avg ΣFIC (range) (E. coli; β-lactam combined with PEP-52) | Avg ΣFIC (range) (E. coli; [9]) | further results
1 | Cc1nnc(SCC2=C(C(=O)O)N3C(=O)[C@@H](NC(=O)Cn4cnnn4)[C@H]3SC2)s1 [Cefazolin] | 1 and 0.5/0.5 | 64 | 64 | 512 | 128 and 256/256 | 128 | 128 | 512/512 | 1.16 (1.015-1.5) | 1.10 (1-1.25) | 1.1 | 1.1 | >1* | 1.1 | MIC (MSSA; MSSA 79333, listed as CEFAZOLIN): 0.5/0.5; MIC (MSSA; S. aureus control): 0.5/0.5 ug/ml; MIC (MSSA; Staphylococcus aureus, MSSA, S. aureus control, read-out: MIC): 0.5 µg/mL; MICs alone, range (CA-MRSA; 50 CA-MRSA strains): 2 to 256 µg/mL; strains resistant to the antibiotic (CA-MRSA; 50 CA-MRSA strains): 45 of the 50 strains; MIC (CA-MRSA; CA-MRSA 69615 (USA400), agent alone): 64 and 64/64; MIC (CA-MRSA; CA-MRSA 70857 (USA400), agent alone): 32 and 32/32; MIC (CA-MRSA; Staphylococcus aureus, MRSA / USA400): 256 µg/mL; MICs alone, range (HA-MRSA; 50 HA-MRSA strains): 2 to 512 µg/mL; strains resistant to the antibiotic (HA-MRSA; 50 HA-MRSA strains): 47 of the 50 strains; MIC (HA-MRSA; HA-MRSA 77090 (USA100/800), agent alone, in µg/mL): 128 and 64; MIC (HA-MRSA; Staphylococcus aureus, MRSA / USA200, HA-MRSA (CMRSA4/USA200), antibiotic alone, read-out: Cefazolin (MIC)): 256 µg/mL; MIC (HA-MRSA; Staphylococcus aureus, MRSA / USA500, HA-MRSA (CMRSA5/USA500), antibiotic alone, read-out: Cefazolin (MIC)): 2 µg/mL; MIC (HA-MRSA; Staphylococcus aureus, MRSA / USA600, HA-MRSA (CMRSA1/USA600), antibiotic alone, read-out: Cefazolin (MIC)): 128 µg/mL; MIC (HA-MRSA; Staphylococcus aureus, MRSA, HA-MRSA (CMRSA3/6), antibiotic alone, read-out: Cefazolin (MIC)): 256 µg/mL; MIC (HA-MRSA; Staphylococcus aureus, MRSA, HA-MRSA (CMRSA6), antibiotic alone, read-out: Cefazolin (MIC)): 256 µg/mL; MIC (HA-MRSA; Staphylococcus aureus, MRSA, HA-MRSA (CMRSA8), antibiotic alone, read-out: Cefazolin (MIC)): 64 µg/mL
2 | CO/N=C(\C(=O)N[C@@H]1C(=O)N2C(C(=O)O)=C(CSc3nc(=O)c(=O)[nH]n3C)CS[C@H]12)c1csc(N)n1 [Ceftriaxone] | 8 and 4/4 | 512 | 256 | 2048 | 512 and 1024/1024 | 512 | 512 | 4096/4096 | >1* | 0.99 (0.62-1.25) | 1.04 | 0.41 | >1* | 0.41 | MIC (MSSA; MSSA 79333, listed as CEFTRIAXONE): 4/4; MIC (CA-MRSA; CA-MRSA 69615 (USA400), agent alone, in µg/mL): 256 and 512; MIC (CA-MRSA; CA-MRSA 69615 (USA400), agent alone, listed as CEFTRIAXONE, in µg/mL): 128 and 64; MIC (CA-MRSA; CA-MRSA 70857 (USA400), agent alone, in µg/mL): 256 and 128
